# Assay results: patent US10208033B2, “β-carboline, dihydro-β-carboline and tetrahydro-β-carboline alkaloid derivatives and preparation methods same and use in aspects of preventing and treating plant viruses, fungicides and insecticides” (NANKAI UNIVERSITY, priority 2013, dated 2019)
# Columns and labels:
# cucumber fusarium wilt = experiment: Fungicidal (bactericidal) activity in vitro, PDA colony diameter; assay type: cell-based; conditions: 50 mg/kg
# Alternaria solani = experiment: as above; assay type: cell-based; conditions: 50 mg/kg
# [1] = tested on: Colletotrichum orbiculare; experiment: as above; assay type: cell-based; conditions: 50 mg/kg
# Rhizoctonia solani = experiment: as above; assay type: cell-based; conditions: 50 mg/kg
# Bipolaria maydis = experiment: organism not typed; assay type: cell-based; conditions: 50 mg/kg
# [2] = tested on: tobacco mosaic virus (TMV); experiment: Anti-TMV in vivo inactivation; design: species or system tobacco mosaic virus (host Nicotiana tabacum L.cv.Xanthi NN)
# cotton bollworms = experiment: whole plant or invertebrate; conditions: concentration 600 mg/kg
# Experimental: Experimental method of cotton bollworms: feed and drug mixing method: measure 3 mL of prepared solution and add it to about 27 g of newly prepared feed, thereby obtaining needed concentration through dilution by 10 times.
# Botrytis cinerea = experiment: Fungicidal (bactericidal) activity in vitro, PDA colony diameter; assay type: cell-based; conditions: 50 mg/kg
# Macrophoma kawatsukai = experiment: as above; assay type: cell-based; conditions: 50 mg/kg
# Fusarium graminearumt = experiment: microbe, parasite or virus in culture; assay type: cell-based; conditions: 50 mg/kg
# Fusarium fujikuroi = experiment: Fungicidal (bactericidal) activity in vitro, PDA colony diameter; assay type: cell-based; conditions: 50 mg/kg
# Rhizoctonia cereali = experiment: as above; assay type: cell-based; conditions: 50 mg/kg
# [3] = tested on: tobacco mosaic virus (TMV); experiment: Anti-TMV in vitro effect (half-leaf soaking); assay type: cell-based, tobacco mosaic virus (host Nicotiana tabacum L.cv.Xanthi NN)
# [4] = tested on: tobacco mosaic virus (TMV); experiment: Anti-TMV in vivo protective effect; design: species or system tobacco mosaic virus (host Nicotiana tabacum L.cv.Xanthi NN)
# Cercospora arachidicola = experiment: Fungicidal (bactericidal) activity in vitro, PDA colony diameter; assay type: cell-based; conditions: 50 mg/kg
# potato late blight = experiment: microbe, parasite or virus in culture; assay type: cell-based
# Phytophthora capsici = experiment: Fungicidal (bactericidal) activity in vitro, PDA colony diameter; assay type: cell-based; conditions: 50 mg/kg
# armyworms = assay type: in vivo; conditions: concentration 600 mg/kg
# mosquito larvae = experiment: whole plant or invertebrate; conditions: 24 h
# In short: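 Early fourth-instar Culex pipiens pallens larvae from an indoor colony, 10 per beaker, exposed to test compound at 5 ppm in water, diluted from a 1000 ppm acetone mother solution. Blank: water containing 0.5 mL test solvent.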
# [5] = tested on: tobacco mosaic virus (TMV); experiment: Anti-TMV in vivo therapeutic effect; design: species or system tobacco mosaic virus (host Nicotiana tabacum L.cv.Xanthi NN)
# Sclerotinia scleotiorum = experiment: Fungicidal (bactericidal) activity in vitro, PDA colony diameter; assay type: cell-based; conditions: 50 mg/kg
# corn borers = conditions: concentration 600 mg/kg
SMILES,Bactericidal activity (%) Cucumber fusarium wilt (cucumber fusarium wilt) [%],Bactericidal activity (%) Alternaria solani (Alternaria solani) [%],Bactericidal activity (%) Colletotrichum orbiculare [1] [%],Bactericidal activity (%) Rhizoctonia solani (Rhizoctonia solani) [%],Bactericidal activity (%) Bipolaria maydis (Bipolaria maydis) [%],Relative inhibition rate (%) In vivo inactivation ([2]; treatment dose 100 μg/mL) [%],Relative inhibition rate (%) In vivo inactivation ([2]; treatment dose 500 μg/mL) [%],Cotton bollworm Mortality (%) (cotton bollworms),Bactericidal activity (%) Botrytis cinerea (Botrytis cinerea) [%],Bactericidal activity (%) Macrophoma kawatsukai (Macrophoma kawatsukai) [%],Bactericidal activity (%) Fusarium graminearumt (Fusarium graminearumt) [%],Bactericidal activity (%) Fusarium fujikuroi (Fusarium fujikuroi) [%],Bactericidal activity (%) Rhizoctonia cereali (Rhizoctonia cereali) [%],Relative inhibition rate (%) In vitro activity ([3]; treatment dose 100 μg/mL) [%],Relative inhibition rate (%) In vitro activity ([3]; treatment dose 500 μg/mL) [%],Relative inhibition rate (%) In vivo protection ([4]; treatment dose 100 μg/mL) [%],Relative inhibition rate (%) In vivo protection ([4]; treatment dose 500 μg/mL) [%],Bactericidal activity (%) Cercospora arachidicola (Cercospora arachidicola) [%],Bactericidal activity (%) potato late blight (potato late blight) [%],Bactericidal activity (%) Phytophthora capsici (Phytophthora capsici) [%],other results
"CCCC=NNC(=O)[C@@H]1Cc2c([nH]c3ccccc23)[C@H](C)N1 [Ic-23, (1S, 3S)—N′-butylidene-1-methyl-2,3,4,9-tetrahydropyridino [3,4-b] indol-3-formylhydrazine]",19.2,45.0,14.8,6.6,12.0,13.4,47.1,10,9.1,69.4,6.9,0.0,43.1,7.8,32.6,11.3,40.5,17.6,20.0,5.3,Armyworm Mortality (%) (armyworms): 15%; Mosquito larvae Mortality (%) (mosquito larvae; concentration 10 mg/kg): 35%; Relative inhibition rate (%) In vivo therapy ([5]; treatment dose 100 μg/mL): 10.4%; Relative inhibition rate (%) In vivo therapy ([5]; treatment dose 500 μg/mL): 41.3%; Bactericidal activity (%) Sclerotinia scleotiorum (Sclerotinia scleotiorum): 64.7%; Corn borer Mortality (%) (corn borers): 10%
"CCCCCCCC=NNC(=O)[C@@H]1Cc2c([nH]c3ccccc23)[C@H](C)N1 [Ic-24, (1S, 3S)—N′-octadien-1-methyl-2,3,4,9-tetrahydropyridino [3,4-b] indol-3-formylhydrazine]",9.1,19.0,32.0,22.2,36.0,32.8,73.4,20,44.4,24.2,61.5,35.3,29.7,23.2,61.3,27.3,59.6,36.4,17.4,18.2,Armyworm Mortality (%) (armyworms): 45%; Mosquito larvae Mortality (%) (mosquito larvae; concentration 5 mg/kg): 10%; Mosquito larvae Mortality (%) (mosquito larvae; concentration 10 mg/kg): 100%; Relative inhibition rate (%) In vivo therapy ([5]; treatment dose 100 μg/mL): 31.7%; Relative inhibition rate (%) In vivo therapy ([5]; treatment dose 500 μg/mL): 70.9%; Bactericidal activity (%) Sclerotinia scleotiorum (Sclerotinia scleotiorum): 46.2%; Corn borer Mortality (%) (corn borers): 50%
"C[C@@H]1N[C@H](C(=O)NN=CC2CCCCC2)Cc2c1[nH]c1ccccc21 [Ic-25, (1S, 3S)—N′-(cyclohexylmethylene)-1-methyl-2,3,4,9-tetrahydropyridino [3,4-b] indol-3-formylhydrazine]",4.5,19.0,24.0,5.6,36.0,36.3,75.8,20,66.7,33.3,30.8,41.2,29.7,31.2,59.6,25.7,69.2,0.0,17.4,9.1,Armyworm Mortality (%) (armyworms): 45%; Mosquito larvae Mortality (%) (mosquito larvae; concentration 5 mg/kg): 10%; Mosquito larvae Mortality (%) (mosquito larvae; concentration 10 mg/kg): 100%; Relative inhibition rate (%) In vivo therapy ([5]; treatment dose 100 μg/mL): 30.4%; Relative inhibition rate (%) In vivo therapy ([5]; treatment dose 500 μg/mL): 62.8%; Bactericidal activity (%) Sclerotinia scleotiorum (Sclerotinia scleotiorum): 21.2%; Corn borer Mortality (%) (corn borers): 55%
"C[C@@H]1N[C@H](C(=O)NN=CC(C)(C)C)Cc2c1[nH]c1ccccc21 [Ic-26, (1S, 3S)—N′-(2,2-dimethylpropylidene)-1-methyl-2,3,4,9-tetrahydropyridino [3,4-b] indol-3-formylhydrazine]",4.5,19.0,24.0,8.3,20.0,28.9,63.7,20,36.1,36.4,46.2,29.4,48.6,27.5,64.4,33.4,66.8,18.2,17.4,12.1,Armyworm Mortality (%) (armyworms): 25%; Mosquito larvae Mortality (%) (mosquito larvae; concentration 10 mg/kg): 55%; Relative inhibition rate (%) In vivo therapy ([5]; treatment dose 100 μg/mL): 36.8%; Relative inhibition rate (%) In vivo therapy ([5]; treatment dose 500 μg/mL): 68.2%; Bactericidal activity (%) Sclerotinia scleotiorum (Sclerotinia scleotiorum): 15.4%; Corn borer Mortality (%) (corn borers): 30%
